Laboratory results published in PubChem BioAssay (NCI).
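Assay format: 96-well plates, 48-hour exposure. TGI denotes the concentration required for complete inhibition of growth.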

Assays:
Experiment in all cases: DTP human tumour cell line panel, 48 h
[1] = tested on: DU-145 prostate
[2] = tested on: NCI-H460 lung
[3] = tested on: T-47D breast
[4] = tested on: SF-295 CNS
[5] = tested on: A498 renal
[6] = tested on: PC-3 prostate
[7] = tested on: HOP-92 NSCLC
[8] = tested on: A549 NSCLC
[9] = tested on: HCT-15 colon
[10] = tested on: OVCAR-3 ovarian
[11] = tested on: 786-0 renal
[12] = tested on: LOX IMVI melanoma
[13] = tested on: SN12C renal
[14] = tested on: KM12 colon
[15] = tested on: NCI/ADR-RES ovarian
[16] = tested on: K-562 leukemia
[17] = tested on: COLO 205 colon
[18] = tested on: OVCAR-4 ovarian
[19] = tested on: TK-10 renal
[20] = tested on: SF-539 CNS
[21] = tested on: HCT-116 colon
[22] = tested on: IGROV1 ovarian
[23] = tested on: NCI-H226 lung
[24] = tested on: RXF 393 renal
[25] = tested on: SNB-75 CNS
[26] = tested on: UACC-257 melanoma
[27] = tested on: MOLT-4 leukemia
[28] = tested on: M14 melanoma
[29] = tested on: OVCAR-8 ovarian
[30] = tested on: CAKI-1 renal
[31] = tested on: HS 578T breast
[32] = tested on: MALME-3M melanoma
[33] = tested on: MCF7 breast
[34] = tested on: UACC-62 melanoma
[35] = tested on: NCI-H23 lung
[36] = tested on: SK-MEL-28 melanoma
[37] = tested on: HOP-62 NSCLC
[38] = tested on: MDA-N
[39] = tested on: BT-549 breast
[40] = tested on: SW-620 colon
[41] = tested on: OVCAR-5 ovarian
[42] = tested on: SK-MEL-2 melanoma
[43] = tested on: SK-OV-3 ovarian
[44] = tested on: EKVX NSCLC
[45] = tested on: UO-31 renal
[46] = tested on: U251 CNS
[47] = tested on: HT29 colon
[48] = tested on: MDA-MB-435
[49] = tested on: CCRF-CEM leukemia
[50] = tested on: MDA-MB-231 breast
[51] = tested on: SNB-19 CNS
[52] = tested on: RPMI-8226 leukemia
[53] = tested on: ACHN renal
[54] = tested on: SK-MEL-5 melanoma
[55] = tested on: NCI-H522 lung
[56] = tested on: SF-268 CNS
[57] = tested on: SR leukemia
[58] = tested on: HL-60(TB) leukemia
[59] = tested on: HCC-2998 colon

`CC(=O)c1ccc(O)c(CN(C2CCCCC2)C2CCCCC2)c1O` was tested, and the TGI [1] was > 100 µM, the TGI [2] was > 100 µM and the TGI [3] was > 100 µM. The TGI [4] was > 100 µM, the TGI [5] was > 100 µM and the TGI [6] was > 100 µM. The TGI [7] was > 100 µM, the TGI [8] was > 100 µM and the TGI [9] was > 100 µM. The TGI [10] was > 100 µM, the TGI [11] was > 100 µM and the TGI [12] was > 100 µM. For the same compound, the TGI [13] was > 100 µM, the TGI [14] was > 100 µM and the TGI [15] was > 100 µM. The TGI [16] was > 100 µM, the TGI [17] was > 100 µM and the TGI [18] was > 100 µM. The TGI [19] was > 100 µM, the TGI [20] was > 100 µM and the TGI [21] was > 100 µM. For the same compound, the TGI [22] was > 100 µM, the TGI [23] was > 100 µM and the TGI [24] was > 100 µM. For the same compound, the TGI [25] was > 100 µM, the TGI [26] was > 100 µM and the TGI [27] was > 100 µM. The TGI [28] was > 100 µM, the TGI [29] was > 100 µM and the TGI [30] was > 100 µM. For the same compound, the TGI [31] was > 100 µM, the TGI [32] was > 100 µM and the TGI [33] was > 100 µM. The TGI [34] was > 100 µM, the TGI [35] was > 100 µM and the TGI [36] was > 100 µM. The TGI [37] was > 100 µM, the TGI [38] was > 100 µM and the TGI [39] was > 100 µM. The TGI [40] was > 100 µM, the TGI [41] was > 100 µM and the TGI [42] was > 100 µM. For the same compound, the TGI [43] was > 100 µM, the TGI [44] was > 100 µM and the TGI [45] was > 100 µM. For the same compound, the TGI [46] was > 100 µM, the TGI [47] was > 100 µM and the TGI [48] was > 100 µM. The TGI [49] was 1.88 µM, the TGI [50] was > 100 µM and the TGI [51] was > 100 µM. The TGI [52] was > 100 µM, the TGI [53] was > 100 µM and the TGI [54] was > 100 µM. For the same compound, the TGI [55] was > 100 µM and the TGI [56] was > 100 µM.

With `COc1cc(NC(C)=O)ccc1C(=O)NN1C(=O)/C(=C/c2ccco2)N=C1c1ccccc1` the TGI [1] was > 50 µM, the TGI [57] was > 50 µM and the TGI [3] was > 50 µM. For the same compound, the TGI [4] was > 50 µM, the TGI [5] was > 50 µM and the TGI [6] was > 50 µM. The TGI [7] was > 50 µM, the TGI [8] was > 50 µM and the TGI [9] was > 50 µM. The TGI [10] was > 50 µM, the TGI [11] was > 50 µM and the TGI [12] was > 50 µM. The TGI [13] was > 50 µM, the TGI [15] was > 50 µM and the TGI [16] was > 50 µM. The TGI [17] was > 50 µM, the TGI [18] was > 50 µM and the TGI [20] was > 50 µM. For the same compound, the TGI [21] was > 50 µM, the TGI [22] was > 50 µM and the TGI [24] was > 50 µM. The TGI [25] was > 50 µM, the TGI [27] was 45.6 µM and the TGI [28] was > 50 µM. The TGI [29] was > 50 µM, the TGI [30] was > 50 µM and the TGI [31] was > 50 µM. The TGI [32] was > 50 µM, the TGI [33] was > 50 µM and the TGI [34] was > 50 µM. The TGI [35] was > 50 µM, the TGI [36] was > 50 µM and the TGI [37] was > 50 µM. The TGI [38] was > 50 µM, the TGI [39] was > 50 µM and the TGI [40] was > 50 µM. For the same compound, the TGI [41] was > 50 µM, the TGI [42] was > 50 µM and the TGI [43] was > 50 µM. The TGI [44] was > 50 µM, the TGI [45] was > 50 µM and the TGI [47] was > 50 µM. For the same compound, the TGI [48] was > 50 µM, the TGI [49] was 31.1 µM and the TGI [51] was > 50 µM. For the same compound, the TGI [52] was 31.8 µM, the TGI [58] was > 50 µM and the TGI [53] was > 50 µM. For the same compound, the TGI [54] was > 50 µM, the TGI [55] was > 50 µM and the TGI [56] was > 50 µM.

`O=C(c1ccncc1)C1C(=O)c2ccccc2C1C1(O)c2ccccc2CC1C(O)c1ccncc1` (stereo unspecified) was tested, and the TGI [57] was > 100 µM, the TGI [2] was > 100 µM and the TGI [3] was > 100 µM. For the same compound, the TGI [4] was > 100 µM, the TGI [5] was > 100 µM and the TGI [7] was > 100 µM. For the same compound, the TGI [8] was > 100 µM, the TGI [9] was > 100 µM and the TGI [11] was > 100 µM. For the same compound, the TGI [12] was > 100 µM, the TGI [59] was > 100 µM and the TGI [13] was > 100 µM. For the same compound, the TGI [14] was > 100 µM, the TGI [15] was > 100 µM and the TGI [16] was > 100 µM. For the same compound, the TGI [17] was > 100 µM, the TGI [18] was > 100 µM and the TGI [19] was > 100 µM. For the same compound, the TGI [20] was > 100 µM, the TGI [21] was > 100 µM and the TGI [22] was > 100 µM. For the same compound, the TGI [23] was > 100 µM, the TGI [24] was > 100 µM and the TGI [25] was > 100 µM. For the same compound, the TGI [26] was > 100 µM, the TGI [27] was 69.7 µM and the TGI [28] was > 100 µM. The TGI [29] was > 100 µM, the TGI [30] was > 100 µM and the TGI [31] was > 100 µM. For the same compound, the TGI [32] was > 100 µM, the TGI [33] was > 100 µM and the TGI [34] was 48.7 µM. The TGI [35] was > 100 µM, the TGI [36] was > 100 µM and the TGI [37] was > 100 µM. For the same compound, the TGI [38] was 38.9 µM, the TGI [39] was > 100 µM and the TGI [40] was > 100 µM. The TGI [41] was > 100 µM, the TGI [42] was 57.3 µM and the TGI [43] was > 100 µM. For the same compound, the TGI [44] was > 100 µM, the TGI [45] was 29 µM and the TGI [46] was > 100 µM. The TGI [47] was > 100 µM, the TGI [48] was 47.9 µM and the TGI [50] was > 100 µM. For the same compound, the TGI [51] was > 100 µM, the TGI [52] was 90.2 µM and the TGI [53] was > 100 µM. The TGI [54] was > 100 µM, the TGI [55] was > 100 µM and the TGI [56] was > 100 µM.
